# Experimental data as given in patent US9115143B2, “Substituted indole derivatives as gamma secretase modulators” (Janssen Pharmaceuticals, Inc., priority 2011, dated 2015).
# pIC50: −log10 of the molar value.
# Experiments:
# Aβtotal = assay: Screening for γ-secretase-modulating activity: Aβtotal in supernatant of SKNBE2 cells carrying hAPP 695 wild type (Alphalisa); format: cell-based, human; settings: overnight incubation, Alphalisa on supernatant
# How it was run: (§1)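 Secreted Aβ42 (C-terminal/N-terminal antibody pair) and Aβtotal (N-terminal/mid-region pair) were quantified by AlphaLISA after overnight compound exposure of wild-type hAPP 695 SKNBE2 cells at 37 °C. Values expressed relative to compound-free maximum, with IC50 from nonlinear 4-parameter regression.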
# Aβ42 [1] = assay: Screening for γ-secretase-modulating activity: Aβ42 in supernatant of SKNBE2 cells carrying hAPP 695 wild type (Alphalisa); format: cell-based, human; settings: SKNBE2 human neuroblastoma cells carrying hAPP 695 wild type; overnight incubation; Alphalisa on supernatant
# How it was run: as §1
# Aβ42 [2] = assay: In vivo efficacy B-1b: brain soluble Aβ42, MSD electrochemiluminescence multiplex; settings: mouse brain soluble fraction, dose 30 mg/kg oral dosing, 4 h after dose; untreated control set at 100; read-out: Aβ42 (% vs Ctrl)_Mean
# From the text: (§2) To determine whether acute administration of an Aβ42 lowering agent would reduce Aβ42 levels in vivo, non-transgenic rodents, e.g. mice or rats were used. Animals treated with the Aβ42 lowering agent were examined and compared to those untreated or treated with vehicle and brain levels of soluble Aβ42, Aβ40, Aβ38, and Aβ37 were quantitated by Meso Scale Discovery's (MSD) electrochemiluminescence detection technology. Treatment periods varied from hours (h) to days and were adjusted based on the results of the Aβ42 lowering once a time course of onset of effect could be established.
# (§3) A typical protocol for measuring Aβ42 lowering in vivo is shown but it is only one of many variations that could be used to optimize the levels of detectable Aβ. For example, Aβ42 lowering compounds were formulated in 20% of Captisol® (a sulfobutyl ether of β-cyclodextrin) in water or 20% hydroxypropyl β cyclodextrin. The Aβ42 lowering agents were administered as a single oral dose or by any acceptable route of administration to overnight fasted animals. After 4 h, the animals were sacrificed and Aβ42 levels were analysed.
# (§4) Blood was collected by decapitation and exsanguinations in EDTA-treated collection tubes. Blood was centrifuged at 1900 g for 10 minutes (min) at 4° C. and the plasma recovered and flash frozen for later analysis. The brain was removed from the cranium and hindbrain. The cerebellum was removed and the left and right hemisphere were separated. The left hemisphere was stored at −18° C. for quantitative analysis of test compound levels. The right hemisphere was rinsed with phosphate-buffered saline (PBS) buffer and immediately frozen on dry ice and stored at −80° C. until homogenization for biochemical assays.
# (§5) Mouse brains from non-transgenic animals were resuspended in 8 volumes of 0.4% DEA (diethylamine)/50 mM NaCl containing protease inhibitors (Roche-11873580001 or 04693159001) per gram of tissue, e.g. for 0.158 g brain, add 1.264 ml of 0.4% DEA. All samples were homogenized in the FastPrep-24 system (MP Biomedicals) using lysing matrix D (MPBio #6913-100) at 6 m/s for 20 seconds. Homogenates were centrifuged at 20800×g for 5 min and supernatants collected. Supernatants were centrifuged at 221.300×g for 50 min. The resulting high speed supernatants were then transferred to fresh eppendorf tubes. Nine parts of supernatant were neutralized with 1 part 0.5 M Tris-HCl pH 6.8 and used to quantify Aβ.
# (§6) To quantify the amount of Aβ42, Aβ40, Aβ38, and Aβ37 in the soluble fraction of the brain homogenates, simultaneous specific detection of Aβ42, Aβ40, Aβ38, and Aβ37 was performed using MSD's electro-chemiluminescence multiplex detection technology. In this assay purified monoclonal antibodies specific for Abeta37 (JRD/Aβ37/3), Abeta38 (J&JPRD/Aβ38/5), Abeta40 (JRF/cAβ40/28), and Abeta42 (JRF/cAβ42/26) were coated on MSD 4-plex plates. Briefly, the standards (a dilution of synthetic Aβ42, Aβ40, Aβ38, and Aβ37) were prepared in 1.5 ml Eppendorf tube in Ultraculture, with final concentrations ranging from 10000 to 0.3 pg/m. The samples and standards were co-incubated with Sulfo-tag labelled JRF/rAβ/2 antibody to the N-terminus of Aβ as detector antibody. 50 μl of conjugate/sample or conjugate/standards mixtures were then added to the antibody-coated plate. The plate was allowed to incubate overnight at 4° C. in order to allow formation of the antibody-amyloid complex. Following this incubation and subsequent wash steps the assay was finished by adding read buffer according to the manufacturer's instructions (Meso Scale Discovery, Gaitherburg, Md.).
# (§7) The SULFO-TAG emits light upon electrochemical stimulation initiated at the electrode. MSD Sector instrument SI6000 was used for signal read-out.
# In this model a Aβ42 lowering compared to untreated animals would be advantageous, in particular a Aβ42 lowering with at least 10%, more in particular a Aβ42 lowering with at least 20%. […]
# Aβ38 = assay: In vivo efficacy B-2b: brain soluble Aβ38, MSD electrochemiluminescence multiplex; settings: mouse brain soluble fraction, dose 30 mg/kg oral dosing, 4 h after dose; untreated control set at 100; read-out: Aβ38 (% vs Ctrl)_Mean
# From the text: as §2, with “Aβ38 increasing agents” for “Aβ42 lowering agent”, “increase Aβ38” for “reduce Aβ42”, “MSD” for “Meso Scale Discovery's (MSD)”, “Aβ38 increase” for “Aβ42 lowering”
# as §3, with “measuring Aβ38 increase” for “measuring Aβ42 lowering”, “example, Aβ38 increasing agents” for “example, Aβ42 lowering compounds”, “The Aβ38 increasing” for “The Aβ42 lowering”, “and Aβ38” for “and Aβ42”
# as §4, §5, §6, §7
# In this model a Aβ38 increase compared to untreated animals would be advantageous, in particular a Aβ38 increase with at least 10%, more in particular a Aβ38 increase with at least 20%. […]
# Aβ40 = assay: In vivo efficacy B-1b/B-2b: brain soluble Aβ40, MSD electrochemiluminescence multiplex; settings: mouse brain soluble fraction, dose 30 mg/kg oral dosing, 4 h after dose; untreated control set at 100; read-out: Aβ40 (% vs Ctrl)_Mean
# From the text: as §2, §3, §4, §5, §6, §7
# The results are shown in Table 5 (dose 30 mg/kg oral dosing) (value for untreated animals as control (Ctrl) was set at 100): […]
# [3] = SKNBE2 human neuroblastoma cells carrying hAPP 695 wild type
# [4] = Homo sapiens, SKNBE2, SKNBE2 human neuroblastoma cells carrying hAPP 695 wild type
Structure (SMILES),pIC50 (Aβtotal; [3]),melting point,pIC50 (Aβ42 [1]),response vs control in vivo at 30 mg/kg (Aβ42 [2]),response vs control in vivo at 30 mg/kg (Aβ38),response vs control in vivo at 30 mg/kg (Aβ40),pIC50 (Aβtotal; [4])
"COc1c(C#N)ccc2[nH]c(-c3nc4n(n3)CCOC4c3cccc(F)c3C)cc12 (stereo not shown) [Compound 147, 2-[8-(3-fluoro-2-methylphenyl)-5,6-dihydro-8H-[1,2,4]triazolo[5,1-c][1,4]oxazin-2-yl]-4-methoxy-1H-indole-5-carbonitrile]",< 5.00,240.4 °C,7.51,67%,160%,79%,–
"COc1c(C#N)ccc2[nH]c(-c3cn4c(n3)C(c3ccccc3Cl)OCC4)cc12 (stereo not shown) [Compound 50, 2-[8-(2-chlorophenyl)-5,6-dihydro-8H-imidazo[2,1-c][1,4]oxazin-2-yl]-4-methoxy-1H-indole-5-carbonitrile]",< 5.00,254.3 °C,7.51,43%,141%,46%,–
"COc1c(C#N)ccc2[nH]c(-c3cn4c(n3)C(c3c(F)cccc3C(F)(F)F)OCC4)cc12 (stereo not shown) [Compound 153, 2-[8-[2-fluoro-6-(trifluoromethyl)phenyl]-5,6-dihydro-8H-imidazo[2,1-c][1,4]oxazin-2-yl]-4-methoxy-1H-indole-5-carbonitrile]",< 5.00,–,7.44,60%,236%,76%,–
"COc1c(C#N)ccc2[nH]c(-c3nc4n(n3)CCCOC4c3ccc(F)cc3C)cc12 (stereo not shown) [Compound 53, 2-[9-(4-fluoro-2-methylphenyl)-6,7-dihydro-5H,9H-[1,2,4]triazolo[5,1-c][1,4]oxazepin-2-yl]-4-methoxy-1H-indole-5-carbonitrile]",< 5.00,–,7.46,74%,78%,79%,–
"COc1c(C#N)ccc2[nH]c(-c3nc4n(n3)CCOC4c3cccc(F)c3C(F)(F)F)cc12 (single isomer, unassigned) [Compound 133, 2-[8-[3-fluoro-2-(trifluoromethyl)phenyl]-5,6-dihydro-8H-[1,2,4]triazolo[5,1-c][1,4]oxazin-2-yl]-4-methoxy-1H-indole-5-carbonitrile]",–,–,7.23,98%,119%,107%,< 5.00
"COc1c(C#N)ccc2[nH]c(-c3cn4c(n3)C(c3c(C)cccc3F)OCC4)cc12 (stereo not shown) [Compound 138, 2-[8-(2-fluoro-6-methylphenyl)-5,6-dihydro-8H-imidazo[2,1-c][1,4]oxazin-2-yl]-4-methoxy-1H-indole-5-carbonitrile]",< 5.00,297 °C,7.72,75%,117%,90%,–
"COc1c(C#N)ccc2[nH]c(-c3cn4c(n3)C(c3cc(F)ccc3C)OCC4)cc12 (stereo not shown) [Compound 158, 2-[8-(5-fluoro-2-methylphenyl)-5,6-dihydro-8H-imidazo[2,1-c][1,4]oxazin-2-yl]-4-methoxy-1H-indole-5-carbonitrile]",< 5.00,280.1 °C,7.64,66%,140%,87%,–
"COc1c(C#N)ccc2[nH]c(-c3cn4c(n3)C(c3c(F)cccc3Cl)OCC4)cc12 (single isomer, unassigned) [Compound 122, 2-[8-(2-chloro-6-fluorophenyl)-5,6-dihydro-8H-imidazo[2,1-c][1,4]oxazin-2-yl]-4-methoxy-1H-indole-5-carbonitrile]",–,–,7.41,74%,145%,90%,< 5.00
"COc1c(C#N)ccc2[nH]c(-c3cn4c(n3)C(c3cc(C(F)(F)F)ccc3F)OCC4)cc12 (stereo not shown) [Compound 164, 2-[8-[2-fluoro-5-(trifluoromethyl)phenyl]-5,6-dihydro-8H-imidazo[2,1-c][1,4]oxazin-2-yl]-4-methoxy-1H-indole-5-carbonitrile]",< 5.00,–,7.39,65%,141%,81%,–
